Test results: patent US20140309184A1, “METHODS AND COMPOSITIONS FOR THE TREATMENT OF OVARIAN CANCER” (UNIVERSITY OF SOUTH ALABAMA, priority 2011, published 2014)
Entries after “also recorded” stand apart in the source; their conditions may differ.

Columns and labels:
[1] = system: OV90 OCSC (CD44+/CD24-); experiment: Matrigel invasion assay of CD44+/CD24- ovarian cancer stem cells; assay type: cell-based; details: 2.5 μM, 24 hours
Procedure: (§1) Fluorescence-activated cell sorting (FACS) was performed in order to sort into 2 distinct phenotypes: 1) ovarian cancer stem cell phenotype (OCSC=CD44+/CD24−) and 2) non-ovarian cancer stem cells (non-OCSC=all other phenotypes). Each ovarian cancer phenotype was evaluated for invasion properties using the Matrigel invasion assay for the SKOV3 and OV90 cell lines. Matrigel™-coated chamber (BD Pharmingen) were rehydrated for 2 hours in humidified tissue culture incubator at 37° C., 5% CO2. After rehydration, the medium was carefully removed without disturbing the layer of Matrigel Matrix on the membrane. The cell suspension was prepared in serum-free medium containing 10^5 cells/mL. The lower chambers of the 24-well plate were filled with 750 μL serum-free medium containing 10 μg/mL fibronectin as a chemotactic factor. […] The cells were then fixed, stained and counted. Numbers of invaded cells at least 10 consecutive fields were enumerated and their average was calculated. Data are expressed as the number of migrating cells per field. Three groups were evaluated: 1) non-OCSC; 2) OCSC; 3) OCSC plus BMS833923 treatment.
(§2) One aggressive property of cancer includes the ability to invade tissues locally. Therefore, the ability of Ovarian Cancer Stem Cells (OCSC) with CD44+/CD24− phenotype to invade via Matrigel invasion assay was evaluated. […]

[2] = system: SKOV3 OCSC (CD44+/CD24-); experiment: as above; assay type: cell-based; details: 2.5 μM, 24 hours
Procedure: as §1, §2

[3] = system: GLI1; experiment: Localization of Gli1 by immunofluorescent staining in SKOV3 cells; assay type: cell-based; details: SKOV3, 24 hours treatment
Procedure: Considering intranuclear Gli1 confers an activated Hh pathway, SKOV3 cells were evaluated for Gli1 location after BMS-833923 treatment and compared to control (no treatment). Cells were grown on Poly-L-Lysine coated Glass Coverslips (BD Bioscience) for overnight, then incubated with 5 μM BMS-833923 for 24 hours, respectively, fixed in 4% paraformaldehyde for 15 minutes at room temperature, washed with PBS and permeabilized with 0.25% Triton X-100 (Sigma) for 10 minutes. Primary antibody (Anti-human Gli1 antibody, Santa Cruz Biotechnology, Inc.) incubation followed for overnight at 4° C. After washing thoroughly with PBS, cells were further probed with secondary antibody (anti-rabbit IgG-FITC, Sigma) for one hour at room temperature. Nuclei were counterstained with diluted DAPI (Sigma) for 3 minutes before mounting and analyzing with microscope.
SKOV3 cells were treated with 2.5 μBMS-833923 and the cellular location of Gli1 determined at various times using immunofluorescence. Immunofluorescence analysis was performed as described above. In untreated control cell, Gli1 is concentrated in the nucleus at 24 hrs, indicating an activated Hh pathway. […] Both indicating restriction of Gli1 from the nucleus and inhibition of Hh pathway.

[4] = system: A2780 xenografts; experiment: Xenograft tumor growth, carboplatin-sensitive model; assay type: in vivo; details: SCID mice; BMS-833923 100 mg/kg i.p. daily, Carboplatin 40 mg/kg i.p. twice a week, two weeks
Procedure: (§3) Female SCID mice 6-8 weeks old were inoculated i.p. with 5×10^6 A2780 or A2780/CP70 cells suspended in 200 μL PBS (PH 7.4). Seven days later when the tumor reached a size of greater than 150 mm^3, the mice were randomly divided into 4 groups (8 mice per group) as follows: (1) PBS-treated control; (2) BMS-833923 alone (100 mg/kg, i.p. daily, two weeks); (3) Carboplatin alone (40 mg/kg, i.p. twice a week, two weeks); (4) Combination of BMS-833923 and Carboplatin treatment. Mice were weighed and tumor diameters were measured with calipers every 2-3 days for 20 days. The tumor volumes (mm^3) were calculated as (W^2×L)/2, where W and L are the minor and major diameters (in millimeters), respectively.
(§4) Xenograft experiments were performed as described above. Carboplatin was dosed days 7, 11, 14, 18; BMS-833923 was dosed days 8 through 20. The experiment was terminated due to excessive tumor size in vehicle and BMS-833923 treatment groups.

[5] = system: CP2780 xenografts; experiment: Xenograft tumor growth, carboplatin-resistant model; assay type: in vivo; details: SCID mice; BMS-833923 100 mg/kg i.p. daily, Carboplatin 40 mg/kg i.p. twice a week, two weeks
Procedure: as §3, §4
The CP2780 was derived from the A2780 Ovarian tumor xenograft model by selection for resistance to cisplatin. The CP2780 growth appeared to be more robust than observed for parental A2780 model (FIG. 12B). Average tumor volume doubling time for CP2780 was estimated at 2 days. Doubling time for parental A2780 tumor model was estimated at 3 days. […]

[6] = MTD for combination therapy; assay type: in vivo; details: in vivo; BMS-833923 + carboplatin given together; previously demonstrated
Description: Treatment with BMS-833923 appeared to have little effect on the growth of A2780 xenografts in vivo.

Structure (SMILES): CNCc1ccc(C)c(NC(=O)c2ccc(Nc3nc(-c4ccccc4)c4ccccc4n3)cc2)c1 [BMS-833923, N-{2-methyl-5-[(methylamino)methyl]phenyl}-4-[(4-phenylquinazolin-2-yl)amino]benzamide]
- invasive properties of OCSC (number of cells invaded) [1]: lower than non-OCSCs
- invasive properties of OCSC (number of cells invaded) [2]: lower than non-OCSCs
- cellular location of Gli1 [3]: near complete exclusion of intranuclear GLl1; also recorded: Gli1 being excluded from the nucleus
- effect on growth of A2780 xenografts in vivo [4]: little effect
- effect on growth of CP2780 (A2780/CP70) xenografts in vivo [5]: little effect
- MTD [6]: 100 mg/kg
